Experimental data taken from article PMC6154636, “Using UPLC-MS/MS for Characterization of Active Components in Extracts of Yupingfeng and Application to a Comparative Pharmacokinetic Study in Rat Plasma after Oral Administration” (Molecules : A Journal of Synthetic Chemistry and Natural …, 2017).
Read-outs that look alike come from different tables or passages of the source.

Legend:
[1] = Pharmacokinetic study in rats after oral administration of mix standard solution (UPLC-QqQ-MS of plasma); format: in vivo, Sprague-Dawley rats
Method: Then, 300 μL acetonitrile for protein precipitation were added. For the incurred samples, 10 µL of methanol (volume of the corresponding standard solution for calibration curve) and 90 μL of samples with 300 μL acetonitrile were mixed, the mixture was then vortex-extracted for 2 min, and centrifuged for 10 min at 15,000 rpm (4 °C). The supernatant was transferred to a new tube and evaporated under a gentle stream of nitrogen to dryness. The residue was reconstituted with 80 μL of initial mobile phase, vortex-mixed for 1 min and centrifuged at 15,000 rpm for 5 min.
The Chromatographic UPLC-QqQ-MS procedure of pharmacokinetics study was performed using ACQUITY UPLC (Waters, Milford, MA, USA) and SCIEX SelexION Triple Quad™ 5500 System (AB Sciex, Framingham, MA, USA) equipped with a heated electrospray ionization source (ESI) interface, separation was achieved using a Waters BEH C18 column (2.1 mm × 100 mm, 1.7 μm) which was protected by an online filter, the mobile phase was at a flow rate of 0.5 mL/min, consisted of aqueous solvent A: water–acetic acid (1000:1, v/v) and organic phase solvent B: acetonitrile. A 10-min binary gradient elution was performed for the separation, and the consecutive program was as follows: an isocratic elution of 5% solvent B to equilibrate the column, then followed by a linear gradient elution: 0–2.5 min, 5–27% B; 2.5–3.1 min, 27–36% B; 3.1–4.1 min, 36–57% B; 4.1–4.8 min, 57–84% B; 4.8–5.8 min, 84–100% B; 5.8–7 min, 100–100% B; 7–8 min, 100–5% B; and the re-equilibration time of gradient elution was 2 min. The column and auto-sampler tray temperature were maintained constantly at 45 °C and 4 °C, respectively. The injection volume was 10 μL. The electrospray ionization source was operated in positive mode. Quantitation was performed by schedule multiple reactions monitoring (sMRM). In the positive mode, the tandem mass spectrometry (MS/MS) typical instrumental conditions were: ion spray voltage 5.5 kV, ion source gas 150 psi, ion source gas 250 psi, temperature 500 °C, and curtain gas 38 psi. Data acquisition and processing were performed using Analyst Software (AB Sciex, Corp., Framingham, MA, USA).
The developed UPLC-QqQ-MS method was applied to a pharmacokinetic study of seven analytes in rat plasma. Male healthy adult Sprague-Dawley rats (n = 6, 200 ± 20 g body weight) were supplied by Shanghai Jiao Tong University Laboratory Animal Centre (Shanghai, China). Animals were acclimatized in an environmental controlled breeding room with standard laboratory food and water for one week prior to the experiments. All the rats were fasted for 12 h, with free access to water prior to the experiments, animal welfare and experimental procedures conformed to guidance for the care and use of laboratory animals, similarly the ethical regulations of SJTU.
Then immediately centrifuged at 4000 rpm for 5 minutes, plasma was transferred into another via and stored at −80 °C until assay.
The plasma concentrations of seven analytes at different time points are described as the mean ± s.d. The concentration versus time curve was plotted. Compartmental model was chosen to calculate all the related pharmacokinetic parameters including Cmax (ng/mL), Tmax (h), AUC0−∞ (ng·h/mL), CL/F (L/h.kg), T1/2α (h) and T1/2β (h) were calculated by Kinetica4.4 software (Thermo Fisher Scientific™, Corp., Waltham, MA, USA), and performed with GraphPad 6 (GraphPad Software, Inc., La Jolla, CA, USA). We also use the area under the plasma concentration–time curve from zero to infinity (AUC0−∞) as the weighting factor to make an integrated pharmacokinetic curve. […]

[2] = Stability of the seven analytes in rat plasma (method validation); format: in vitro ADME; conditions: n = 6; for Short-Term RSD: auto-sampler vials for 24 h; for Freeze-Thaw RSD: three freeze–thaw cycles; for Long-Term RSD: −20 °C for 30 days
Method: Stability The short-term and long-term stability of seven analytes in rat plasma in auto-sampler vials for 24 h, at −20 °C for 30 days and after three freeze–thaw cycles was assessed, and also carried out in six replicates samples at three QC levels (low, medium and high).
Stability: The analytes would be considered stable when the accuracy bias was within ±15% of the nominal concentrations (or ±20% for LLOQ).

[3] = cited from earlier work
[4] = male, Sprague-Dawley, rat, in vivo, po, 10 mg/kg
[5] = high QC level (80.0 or 150 ng/mL)
[6] = low QC level (0.25, 0.50 or 1.50 ng/mL)
[7] = medium QC level (1.50, 3.50 or 15.0 ng/mL)
[8] = after oral administration (10 mg/kg)
[9] = male, Sprague-Dawley, rat, in vivo, po, 10 mg/kg, rats, oral 10 mg/kg mix standard in 0.5% CMC-Na, n = 6, Mean ± S.D., read-out: Tmax
[10] = male, Sprague-Dawley, rat, in vivo, Table 8, mean, after oral administration (10 mg/kg), read-out: AUC0−∞
[11] = male, Sprague-Dawley, rat, in vivo, rats, oral 10 mg/kg mix standard in 0.5% CMC-Na, n = 6, Mean ± S.D., compartmental model, read-out: Cmax
[12] = male, Sprague-Dawley, rat, in vivo, rats, oral 10 mg/kg mix standard in 0.5% CMC-Na, n = 6, Mean ± S.D., read-out: CL/F (converted)
[13] = male, Sprague-Dawley, rat, in vivo, rats, oral 10 mg/kg mix standard in 0.5% CMC-Na, n = 6, Mean ± S.D., read-out: T1/2β (converted)
[14] = rats, oral 10 mg/kg mix standard in 0.5% CMC-Na, n = 6, Mean ± S.D., 10 mg/kg

Row | SMILES | AUC(0-inf) [1, 4] [ng·h/mL] | CL/F [1, 4] [mL/min/kg] | Cmax [1, 4] [ng/mL] | T1/2α [1, 4] [h] | Tmax [1, 4] [h] | half-life [1, 4] [h] | weighting coefficient ωj (AUC0−∞ of single analyte / total AUC0−∞ of analytes) [1, 4] | Short-Term RSD [2, 5] [%] | Short-Term RSD [2, 6] [%] | Short-Term RSD [2, 7] [%] | Freeze-Thaw RSD [2, 5] [%] | Freeze-Thaw RSD [2, 6] [%] | Freeze-Thaw RSD [2, 7] [%] | Long-Term RSD [2, 5] [%] | Long-Term RSD [2, 6] [%] | Long-Term RSD [2, 7] [%] | weighting coefficient ωj (AUC0−∞ of single analyte / total AUC0−∞ of analytes) [1, 8] | Tmax [1, 9] [h] | AUC(0-inf) [1, 10] [ng·h/mL] | Cmax [1, 11] [ng/mL] | also measured
1 | COc1c2c(cc3oc(C)cc(=O)c13)OC(C(C)(C)OC1OC(CO)C(O)C(O)C1O)C2 [4-O-beta-D-glucosyl-5-O-methylvisamminol] | 60.8 | 2810 | 50 ± 7.6 | 0.16 ± 0.01 | 0.2 ± 0.01 | 2.4 ± 1.1 | 0.085 | 1.02 | 3.89 | 1.35 | 8.53 | 2.40 | 1.40 | 2.41 | 3.99 | 7.52 |  |  |  |  | 
2 | CC(C)(O)C1CCC(C)(C2C(O)CC3(C)C4CC(OC5OC(CO)C(O)C(O)C5O)C5C(C)(C)C(OC6OCC(O)C(O)C6O)CCC56CC46CCC23C)O1 (stereo not shown) [Astragaloside] |  |  |  |  |  |  |  | 1.45 | 7.06 | 1.06 | 11.51 | 3.65 | 3.20 | 2.80 | 3.36 | 8.08 | 0.269 | 2.8 ± 0.1 | 191 | 26.6 ± 4 | CL/F [1, 12]: 832 mL/min/kg; half-life [1, 13]: 2.06 ± 0.04 h; T1/2α ([1]; rats, oral 10 mg/kg mix standard in 0.5% CMC-Na, n = 6, Mean ± S.D.): 1.98 ± 0.11 h; bioavailability ([3]; stated as a known characteristic, no reference given): low
3 | C=C1CCC[C@]2(C)C[C@@H]3OC(=O)C(C)=C3C[C@@H]12 [Atractylenolide II] | 17.9 | 9820 | 8.4 ± 2.4 | 0.04 ± 0.01 | 0.1 ± 0.1 | 4.1 ± 1.56 | 0.025 |  |  |  |  |  |  |  |  |  |  |  |  |  | biliary excretion [3]: rapid; intestinal absorption [3]: poor
4 | COc1ccc(-c2coc3cc(O)ccc3c2=O)cc1O [Calycosin] | 11.5 | 8330 | 6.3 ± 2.5 | 0.27 ± 0.10 | 0.3 ± 0.1 | 1.09 ± 0.36 | 0.016 | 4.38 | 4.18 | 2.20 | 12.92 | 8.29 | 6.08 | 12.67 | 4.13 | 10.35 |  |  |  |  | 
5 | COc1ccc(-c2coc3cc(O)ccc3c2=O)cc1 [Formononetin] |  |  |  |  |  |  |  | 2.82 | 2.35 | 2.33 | 10.58 | 10.06 | 7.09 | 6.22 | 5.96 | 7.75 | 0.159 | 1.65 | 113 | 13.9 ± 4.2 | CL/F [1, 12]: 1530 mL/min/kg; half-life [1, 13]: 4.1 ± 2.6 h; T1/2α [1, 14]: 1.77 ± 0.81 h; Tmax [1, 14]: 1.6 ± 0.9 h; T1/2α ([1]; rats, oral 10 mg/kg mix standard in 0.5% CMC-Na, n = 6, Mean ± S.D., listed as formononetin, 10 mg/kg): 1.77 h
6 | Cc1cc(=O)c2c(O)c3c(cc2o1)OC(C)(C)[C@@H](O[C@@H]1O[C@H](CO)[C@@H](O)[C@H](O)[C@H]1O)C3 [Sec-O-Glucosylhamaudol] |  |  |  |  |  |  |  | 1.01 | 2.75 | 1.40 | 9.64 | 4.77 | 3.73 | 1.46 | 3.70 | 3.11 |  |  |  |  | T1/2α ([1]; rat, in vivo, po, 10 mg/kg): 1.10 ± 0.26 h; T1/2β ([1]; rat, in vivo, po, 10 mg/kg): 2.4 ± 1.2 min; weighting coefficient ωj (AUC0−∞ of single analyte / total AUC0−∞ of analytes) ([1]; rat, in vivo, po, 10 mg/kg): 0.379
